In publication PMC6458995, “MAP4K4 Inhibition Promotes Survival of Human Stem Cell-Derived Cardiomyocytes and Reduces Infarct Size In Vivo” (Cell Stem Cell, 2019):

Tests used:
Experiment in all cases: Dundee kinase panel
Assay type in all cases: biochemical
Settings in all cases: for remaining activity at 1 µM: read-out: residual activity
[1] = target: T1, JAK2 (Homo sapiens, UniProt O60674)
T1 construct: lines 1-140) and Reaction Biology
Experimental: (§1) Compounds were screened at 1 μM. For key hits, pIC50 values were then determined by HTRF as above. […] Stability in mouse and human liver microsomes was determined by Cyprotex.

[2] = target: T2, IKKb (Homo sapiens, UniProt O14920)
T2 construct: lines 1-140) and Reaction Biology
T2 sequence (O14920 1-756): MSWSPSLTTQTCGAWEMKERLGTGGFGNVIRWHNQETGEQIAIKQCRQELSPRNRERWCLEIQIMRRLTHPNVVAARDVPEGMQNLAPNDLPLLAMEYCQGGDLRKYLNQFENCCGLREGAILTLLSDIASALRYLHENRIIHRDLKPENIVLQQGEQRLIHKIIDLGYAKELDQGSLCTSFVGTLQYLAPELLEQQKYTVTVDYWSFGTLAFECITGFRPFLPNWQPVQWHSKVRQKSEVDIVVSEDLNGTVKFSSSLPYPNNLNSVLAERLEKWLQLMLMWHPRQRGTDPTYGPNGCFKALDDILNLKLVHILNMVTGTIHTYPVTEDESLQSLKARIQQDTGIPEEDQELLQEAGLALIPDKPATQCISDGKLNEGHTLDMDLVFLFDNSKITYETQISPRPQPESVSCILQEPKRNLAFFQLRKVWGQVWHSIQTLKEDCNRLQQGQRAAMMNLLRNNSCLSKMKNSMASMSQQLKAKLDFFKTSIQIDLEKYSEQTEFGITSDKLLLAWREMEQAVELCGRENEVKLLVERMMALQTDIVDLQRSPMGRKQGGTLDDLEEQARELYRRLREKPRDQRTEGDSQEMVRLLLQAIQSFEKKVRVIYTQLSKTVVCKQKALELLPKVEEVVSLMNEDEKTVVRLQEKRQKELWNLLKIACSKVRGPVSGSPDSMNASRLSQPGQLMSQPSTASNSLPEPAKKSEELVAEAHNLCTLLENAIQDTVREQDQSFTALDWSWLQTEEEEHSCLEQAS
Experimental: as §1

[3] = target: T3, VEGFR (Homo sapiens, UniProt P17948)
T3 construct: lines 1-140) and Reaction Biology
T3 sequence (P17948 784-1338 limits assumed): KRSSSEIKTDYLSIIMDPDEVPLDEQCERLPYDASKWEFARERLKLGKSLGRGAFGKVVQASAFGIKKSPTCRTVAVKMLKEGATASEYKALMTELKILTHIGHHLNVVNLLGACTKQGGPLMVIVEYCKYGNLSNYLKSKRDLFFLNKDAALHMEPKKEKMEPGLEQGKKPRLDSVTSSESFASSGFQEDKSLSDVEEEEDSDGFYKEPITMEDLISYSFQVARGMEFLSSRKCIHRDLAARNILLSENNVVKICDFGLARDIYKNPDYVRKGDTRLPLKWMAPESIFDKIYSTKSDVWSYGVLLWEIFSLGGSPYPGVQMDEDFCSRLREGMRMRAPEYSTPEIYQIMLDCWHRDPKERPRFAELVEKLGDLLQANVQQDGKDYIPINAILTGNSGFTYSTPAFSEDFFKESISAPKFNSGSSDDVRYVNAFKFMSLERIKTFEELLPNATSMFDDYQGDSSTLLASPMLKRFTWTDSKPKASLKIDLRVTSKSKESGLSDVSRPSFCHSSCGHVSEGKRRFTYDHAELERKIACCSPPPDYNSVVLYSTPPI
Experimental: as §1

[4] = target: T4, PKCγ (Homo sapiens, UniProt P05129)
T4 construct: lines 1-140) and Reaction Biology
Experimental: as §1

[5] = target: T5, IRR (Homo sapiens, UniProt P14616)
T5 construct: lines 1-140) and Reaction Biology
Experimental: as §1

[6] = target: T6, PLK1 (Homo sapiens, UniProt P53350)
T6 construct: lines 1-140) and Reaction Biology
Experimental: as §1

[7] = target: T7, SRPK1 (Homo sapiens, UniProt Q96SB4)
T7 construct: lines 1-140) and Reaction Biology
Experimental: as §1

[8] = target: T8, LKB1 (Homo sapiens, UniProt Q15831)
T8 construct: lines 1-140) and Reaction Biology
T8 sequence (Q15831 1-433): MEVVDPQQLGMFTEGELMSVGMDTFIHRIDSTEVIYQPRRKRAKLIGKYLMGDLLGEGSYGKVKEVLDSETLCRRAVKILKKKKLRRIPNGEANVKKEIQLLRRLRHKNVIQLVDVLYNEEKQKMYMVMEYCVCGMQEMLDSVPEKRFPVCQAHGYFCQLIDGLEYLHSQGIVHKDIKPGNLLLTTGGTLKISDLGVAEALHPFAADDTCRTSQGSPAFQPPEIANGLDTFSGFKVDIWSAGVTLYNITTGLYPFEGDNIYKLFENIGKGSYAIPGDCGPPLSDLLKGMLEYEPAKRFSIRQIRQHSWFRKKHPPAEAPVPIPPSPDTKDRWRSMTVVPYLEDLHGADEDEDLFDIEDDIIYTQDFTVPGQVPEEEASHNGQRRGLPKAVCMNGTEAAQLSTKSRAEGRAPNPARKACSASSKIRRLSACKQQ
T8 sequence (Q7RTN6 1-431 partner): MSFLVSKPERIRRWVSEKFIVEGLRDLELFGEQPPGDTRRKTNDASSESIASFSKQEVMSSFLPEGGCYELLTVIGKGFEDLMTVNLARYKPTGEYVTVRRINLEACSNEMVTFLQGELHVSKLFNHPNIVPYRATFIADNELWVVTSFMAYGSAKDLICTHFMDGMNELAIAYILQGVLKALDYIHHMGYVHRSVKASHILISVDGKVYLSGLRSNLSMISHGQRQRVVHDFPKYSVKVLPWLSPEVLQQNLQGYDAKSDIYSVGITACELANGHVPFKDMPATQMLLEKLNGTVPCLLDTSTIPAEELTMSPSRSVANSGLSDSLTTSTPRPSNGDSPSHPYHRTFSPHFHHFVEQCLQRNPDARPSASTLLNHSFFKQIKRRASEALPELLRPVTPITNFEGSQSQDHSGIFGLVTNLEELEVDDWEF
T8 sequence (Q9Y376 1-341 partner): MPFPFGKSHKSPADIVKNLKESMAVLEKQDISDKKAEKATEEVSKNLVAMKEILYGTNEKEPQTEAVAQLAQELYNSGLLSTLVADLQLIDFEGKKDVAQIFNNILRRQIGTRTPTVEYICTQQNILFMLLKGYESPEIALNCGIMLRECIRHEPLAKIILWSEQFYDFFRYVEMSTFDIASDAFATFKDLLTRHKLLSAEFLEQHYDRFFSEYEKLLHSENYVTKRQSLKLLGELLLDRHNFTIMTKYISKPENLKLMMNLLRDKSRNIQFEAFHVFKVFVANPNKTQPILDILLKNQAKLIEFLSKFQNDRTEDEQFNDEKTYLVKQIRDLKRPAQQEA
Experimental: as §1

[9] = target: T9, SIK3 (Homo sapiens, UniProt Q9Y2K2)
T9 construct: lines 1-140) and Reaction Biology
Experimental: as §1

[10] = target: T10, HIPK1 (Homo sapiens, UniProt Q86Z02)
T10 construct: lines 1-140) and Reaction Biology
Experimental: as §1

T9 sequence (Q9Y2K2 whole entry): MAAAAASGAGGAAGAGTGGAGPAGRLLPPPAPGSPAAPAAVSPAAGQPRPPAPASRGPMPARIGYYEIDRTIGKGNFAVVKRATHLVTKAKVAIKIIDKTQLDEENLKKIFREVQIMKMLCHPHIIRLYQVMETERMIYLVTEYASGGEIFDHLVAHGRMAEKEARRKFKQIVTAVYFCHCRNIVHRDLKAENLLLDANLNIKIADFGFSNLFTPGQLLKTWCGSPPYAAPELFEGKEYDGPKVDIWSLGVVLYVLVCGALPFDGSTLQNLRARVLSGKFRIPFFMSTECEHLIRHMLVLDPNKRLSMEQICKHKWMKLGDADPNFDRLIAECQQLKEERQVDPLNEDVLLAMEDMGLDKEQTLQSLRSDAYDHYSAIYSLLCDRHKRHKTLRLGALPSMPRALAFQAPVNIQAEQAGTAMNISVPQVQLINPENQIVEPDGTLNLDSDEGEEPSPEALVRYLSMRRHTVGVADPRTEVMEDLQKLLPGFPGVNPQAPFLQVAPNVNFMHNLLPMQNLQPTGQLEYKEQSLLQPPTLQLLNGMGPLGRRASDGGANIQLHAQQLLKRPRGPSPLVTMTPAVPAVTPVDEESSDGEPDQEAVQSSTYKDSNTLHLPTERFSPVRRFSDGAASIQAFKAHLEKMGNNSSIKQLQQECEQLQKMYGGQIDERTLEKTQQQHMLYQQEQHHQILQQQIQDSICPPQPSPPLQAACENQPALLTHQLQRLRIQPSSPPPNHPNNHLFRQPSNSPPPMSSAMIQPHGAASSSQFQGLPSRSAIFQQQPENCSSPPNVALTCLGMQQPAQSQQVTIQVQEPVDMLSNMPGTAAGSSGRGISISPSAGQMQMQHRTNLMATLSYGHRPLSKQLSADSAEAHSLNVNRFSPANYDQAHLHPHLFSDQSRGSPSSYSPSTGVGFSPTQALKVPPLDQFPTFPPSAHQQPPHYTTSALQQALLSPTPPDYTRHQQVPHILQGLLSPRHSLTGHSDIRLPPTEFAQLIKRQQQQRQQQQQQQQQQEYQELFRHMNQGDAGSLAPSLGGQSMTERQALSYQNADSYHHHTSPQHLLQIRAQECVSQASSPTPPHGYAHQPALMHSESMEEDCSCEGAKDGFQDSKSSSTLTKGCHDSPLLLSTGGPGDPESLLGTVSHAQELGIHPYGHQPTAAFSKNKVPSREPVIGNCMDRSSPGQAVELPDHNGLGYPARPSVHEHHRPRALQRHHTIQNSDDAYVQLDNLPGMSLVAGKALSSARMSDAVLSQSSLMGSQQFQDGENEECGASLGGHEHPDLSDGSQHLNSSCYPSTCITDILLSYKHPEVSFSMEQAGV
T6 sequence (P53350 whole entry): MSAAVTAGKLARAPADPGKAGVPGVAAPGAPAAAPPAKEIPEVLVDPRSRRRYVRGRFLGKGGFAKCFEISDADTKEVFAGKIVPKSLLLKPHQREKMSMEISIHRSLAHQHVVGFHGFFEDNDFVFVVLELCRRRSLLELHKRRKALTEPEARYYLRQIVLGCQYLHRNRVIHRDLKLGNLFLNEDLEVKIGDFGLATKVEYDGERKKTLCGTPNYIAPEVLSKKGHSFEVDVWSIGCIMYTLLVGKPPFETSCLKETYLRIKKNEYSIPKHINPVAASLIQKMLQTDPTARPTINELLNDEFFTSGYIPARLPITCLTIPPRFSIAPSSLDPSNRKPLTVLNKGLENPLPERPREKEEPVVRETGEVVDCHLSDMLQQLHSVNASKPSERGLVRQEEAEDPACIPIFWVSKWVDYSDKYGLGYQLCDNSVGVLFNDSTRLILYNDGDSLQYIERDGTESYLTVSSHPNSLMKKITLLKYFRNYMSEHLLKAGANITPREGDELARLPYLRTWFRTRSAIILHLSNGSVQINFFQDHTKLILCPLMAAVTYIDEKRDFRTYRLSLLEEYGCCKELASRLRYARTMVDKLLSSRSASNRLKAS
T1 sequence (O60674 whole entry): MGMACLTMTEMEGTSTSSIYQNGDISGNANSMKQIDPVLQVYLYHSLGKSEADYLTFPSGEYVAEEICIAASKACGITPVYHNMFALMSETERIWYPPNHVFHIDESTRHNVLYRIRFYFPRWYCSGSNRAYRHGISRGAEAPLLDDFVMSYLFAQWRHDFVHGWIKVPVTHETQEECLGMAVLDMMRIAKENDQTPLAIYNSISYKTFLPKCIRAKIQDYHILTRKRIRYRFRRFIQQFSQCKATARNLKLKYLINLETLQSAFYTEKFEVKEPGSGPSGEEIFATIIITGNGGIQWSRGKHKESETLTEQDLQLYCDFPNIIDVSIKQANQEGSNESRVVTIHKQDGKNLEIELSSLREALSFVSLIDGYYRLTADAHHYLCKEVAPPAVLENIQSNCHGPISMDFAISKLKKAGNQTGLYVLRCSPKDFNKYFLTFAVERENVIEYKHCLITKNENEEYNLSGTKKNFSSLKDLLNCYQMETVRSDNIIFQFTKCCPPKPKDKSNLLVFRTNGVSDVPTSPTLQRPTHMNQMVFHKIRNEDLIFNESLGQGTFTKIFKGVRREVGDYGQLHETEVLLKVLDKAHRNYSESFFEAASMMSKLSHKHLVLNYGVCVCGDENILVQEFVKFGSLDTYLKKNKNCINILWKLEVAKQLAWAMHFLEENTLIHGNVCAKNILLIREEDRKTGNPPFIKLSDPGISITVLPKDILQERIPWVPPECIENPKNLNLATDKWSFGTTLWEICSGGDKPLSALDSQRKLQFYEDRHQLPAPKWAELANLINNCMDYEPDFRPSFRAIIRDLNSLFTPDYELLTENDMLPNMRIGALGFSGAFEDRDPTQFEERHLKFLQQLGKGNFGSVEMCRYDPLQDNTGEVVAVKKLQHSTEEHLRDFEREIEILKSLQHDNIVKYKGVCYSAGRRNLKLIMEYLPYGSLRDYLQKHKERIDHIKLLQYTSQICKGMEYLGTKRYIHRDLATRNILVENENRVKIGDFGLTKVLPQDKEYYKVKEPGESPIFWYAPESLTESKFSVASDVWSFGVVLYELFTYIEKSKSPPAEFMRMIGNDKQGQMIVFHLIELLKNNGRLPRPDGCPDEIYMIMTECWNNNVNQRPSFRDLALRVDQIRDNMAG
T10 sequence (Q86Z02 whole entry): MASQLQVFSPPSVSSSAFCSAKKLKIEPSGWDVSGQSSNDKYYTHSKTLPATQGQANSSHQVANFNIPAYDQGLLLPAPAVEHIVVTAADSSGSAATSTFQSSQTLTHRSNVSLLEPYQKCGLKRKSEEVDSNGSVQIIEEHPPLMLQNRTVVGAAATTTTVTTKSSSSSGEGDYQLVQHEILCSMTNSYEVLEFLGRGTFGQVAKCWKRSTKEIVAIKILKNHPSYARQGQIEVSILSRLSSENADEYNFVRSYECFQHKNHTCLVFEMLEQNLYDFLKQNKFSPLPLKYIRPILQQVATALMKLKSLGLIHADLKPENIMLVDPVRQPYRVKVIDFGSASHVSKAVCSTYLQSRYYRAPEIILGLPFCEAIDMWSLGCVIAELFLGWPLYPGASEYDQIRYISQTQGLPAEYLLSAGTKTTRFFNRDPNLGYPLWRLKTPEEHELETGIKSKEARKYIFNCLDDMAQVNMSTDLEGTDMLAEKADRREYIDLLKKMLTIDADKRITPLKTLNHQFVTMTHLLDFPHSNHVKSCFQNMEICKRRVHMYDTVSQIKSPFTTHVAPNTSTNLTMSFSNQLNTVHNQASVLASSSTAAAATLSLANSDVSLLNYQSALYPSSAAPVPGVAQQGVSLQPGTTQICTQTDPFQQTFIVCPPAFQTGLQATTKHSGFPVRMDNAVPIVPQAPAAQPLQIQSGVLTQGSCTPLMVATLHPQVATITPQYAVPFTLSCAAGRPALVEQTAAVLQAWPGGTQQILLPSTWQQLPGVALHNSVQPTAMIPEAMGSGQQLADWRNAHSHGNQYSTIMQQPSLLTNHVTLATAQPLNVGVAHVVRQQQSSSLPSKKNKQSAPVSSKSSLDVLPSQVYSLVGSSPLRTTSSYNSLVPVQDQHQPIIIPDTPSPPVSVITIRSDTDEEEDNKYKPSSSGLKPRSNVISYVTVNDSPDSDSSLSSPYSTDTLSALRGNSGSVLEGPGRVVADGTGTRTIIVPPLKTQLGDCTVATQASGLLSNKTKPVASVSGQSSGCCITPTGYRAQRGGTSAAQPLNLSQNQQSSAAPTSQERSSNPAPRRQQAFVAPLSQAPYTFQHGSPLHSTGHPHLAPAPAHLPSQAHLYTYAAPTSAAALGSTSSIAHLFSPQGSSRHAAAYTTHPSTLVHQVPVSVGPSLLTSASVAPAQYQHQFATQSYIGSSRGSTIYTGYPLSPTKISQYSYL

SMILES | remaining activity at 1 µM [1] [%] | remaining activity at 1 µM [2] [%] | remaining activity at 1 µM [3] [%] | remaining activity at 1 µM [4] [%] | remaining activity at 1 µM [5] [%] | remaining activity at 1 µM [6] [%] | remaining activity at 1 µM [7] [%] | remaining activity at 1 µM [8] [%] | remaining activity at 1 µM [9] [%] | remaining activity at 1 µM [10] [%] | residual activity ([1]; 1 μM) [%] | residual activity ([2]; 1 μM) [%] | residual activity ([3]; 1 μM) [%] | residual activity ([4]; 1 μM) [%] | residual activity ([5]; 1 μM) [%] | residual activity ([6]; 1 μM) [%] | residual activity ([7]; 1 μM) [%] | residual activity ([8]; 1 μM) [%] | residual activity ([9]; 1 μM) [%] | residual activity ([10]; 1 μM) [%]
COCCOc1ccc(-c2cn(-c3ccccc3)c3nc[nH]c(=O)c23)cc1 [DMX-5804, 5-[4-(2-methoxy-ethoxy)-phenyl]-7-phenyl-3,7-dihydro-pyrrolo[2,3-d]pyrimidin-4-one] | 70 | 107 | 27 | 94 | 96 | 118 | 91 | 105 | 90 | 109 |  |  |  |  |  |  |  |  |  | 
Oc1ncnc2c1c(-c1ccccc1)cn2-c1ccccc1 [F1386-0303, 5,7-diphenyl-7H-pyrrolo[2,3-d]pyrimidin-4-ol] | 94 | 102 | 73 | 105 | 95 | 100 | 112 | 96 | 110 | 54 |  |  |  |  |  |  |  |  |  | 
Nc1ncc(C(=O)NC2CN(C(=O)C3CC3)C2)c2ccc(-c3cccc(F)c3)nc12 [GNE-495] |  |  |  |  |  |  |  |  |  |  | 76 | 88 | 92 | 74 | 83 | 84 | 105 | 87 | 87 | 97
O=C1Nc2ccc(I)cc2/C1=C/c1cc(Br)c(O)c(Br)c1 [GW5074] | 82 | 73 | 29 | 100 | 61 | 81 | 8 | 68 | 65 | 84 |  |  |  |  |  |  |  |  |  | 
O=C1Cc2c([nH]c3ccc(Br)cc23)-c2ccccc2N1 [Kenpaullone] | 105 | 103 | 30 | 105 | 89 | 99 | 36 | 89 | 12 | 102 |  |  |  |  |  |  |  |  |  | 
